Measurements published in patent publication US5677331A, “Antimalarial compositions” (priority 1990, dated 1997).

Assays:
P. Berghei K173 N-strain = assay: blood schizontocidal action, 4-day test according to Peters; assay type: in vivo, P. Berghei in mice; details: component alone, oral, mice, mean of three experiments
Description: The synergism between the components benflumetol and artemether is determined according to the method of Peters: Am. Trop. Med. Parasitol Vol. 62, pg. 488-492 (1968).
Blood schizintocidal action of artemether (A) and benflumetol (B) admimistered orally in varying proportions to mice infected with P. Berghei K173 N-strain in "4-day test" according to Peters (Mean values of three experiments)

[1] = system: pernicious malaria protozoae; assay: clinical therapeutic effect of individual components compared to combination; assay type: in vivo, patients (human); details: oral, 3 days and 4 doses; for time for disappearance of protozoae: average; for rate of decrease in protozoae at 24 hours: 20 patients per group
From the text: Determination of therapeutic effect of individual components as compared to synergistic combination: Two groups of patients were selected for oral administration and the 3 days and 4 doses treatment scheme. There were 20 patients with pernicious malaria in each group. The therapeutic effect of the combination and artemether and benflumetol singly were compared separately. The doses of both drugs in individual administration were about the same as in the complex prescription. The parameters determined were: 1) the rate for decrease of protozoa at 24 h post administrationem; 2) average time for disappearance of protozoae; 3) average time for fever subsidence; and 4) cure rate at the 28th day.

[2] = toxicity and tolerability of benflumetol (general statement)
From the text: The dose of the active component benflumetol (I) as contained in the pharmaceutical composition may vary within wide limits and depends on the condition of the patient and the time period elapsed after the outbreak of the disease.

protozoa = assay: rate of killing protozoa in vivo in mice; details: 20× ED90 intragastrically
Description: The rate of killing protozoa was determined in-vivo. When the protozoa concentration in the blood of mice increased to high density, a multiple dose equivalent, i.e. 20× ED90 was given intragastrically. The rate of decrease of protozoae in blood was observed uninterruptedly after administration.

[3] = system: chloroquine-resistant strains of Plasmodium falciparum; details: in vivo; cited from earlier work

| Compound | Effective dose of first component ED50 (P. Berghei K173 N-strain) | Effective dose of first component ED90 (P. Berghei K173 N-strain) | time for disappearance of protozoae [1] | 28-day cure rate [1] | average time for fever subsidence [1] | rate of decrease in protozoae at 24 hours [1] | tolerability [2] | toxicity [2] | timespan required for 90% decrease of the protozoae (protozoa) | activity against chloroquine-resistant strains of Plasmodium falciparum in man [3] | killing of protozoae (protozoa; before their number increased again) |
| --- | --- | --- | --- | --- | --- | --- | --- | --- | --- | --- | --- |
| CCCCN(CCCC)CC(O)c1cc(Cl)cc2c1-c1ccc(Cl)cc1C2=Cc1ccc(Cl)cc1 (centres unmarked) [benflumetol] | 1.30 mg/kg/day | 2.70 mg/kg/day | 68.4 h | 65% | 40 h | 74.5% | high tolerability | low toxicity | 64.3 h |  |  |
| C[C@@H]1CC[C@H]2[C@@H](C)C(=O)O[C@@H]3O[C@@]4(C)CC[C@@H]1[C@]32OO4 [Artemisinine] |  |  |  |  |  |  |  |  |  | active against chloroquine-resistant strains of Plasmodium falciparum in man |  |
| CO[C@H]1O[C@@H]2O[C@@]3(C)CC[C@H]4[C@H](C)CC[C@@H]([C@H]1C)[C@@]24OO3 [artemether] | 2.00 mg/kg/day | 5.30 mg/kg/day | 38.7 h | 45% | 19.7 h | 95.1% |  |  |  |  | could not kill protozoae by more than 90% before their number increased again |
